Experimental findings from patent US7135466B2 (Kirin Beer Kabushiki Kaisha, priority 1999, dated 2006) are described below.

For orientation: inhibition means the percentage by which the read-out fell short of the control. Usually IC50 stands for the concentration needed to halve the response being measured.

One assay concerns the target T1, PDGF-Ra (Homo sapiens, UniProt P16234).
T1 construct: host or cells: G-292 human osteosarcoma cells
Nature of the assay: Inhibitory activity against PDGF-Ra phosphorylation by PDGF-AA stimulation using G292. In kind it is cell-based. As to conditions: for inhibition at 0.1 µM: G292, figure in parentheses in >100( ), at 100 nM, read-out: PDGF (E) inhibition (%) at 100 nM; for IC50: Pharmacological Test Example 1, > means inhibition at indicated concentration not more than 50%, < and << not less than 50%, read-out: PDGF (E) IC50. An outline of the steps:
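Read-out: A450 from a sandwich ELISA (PY-20 capture, anti-PDGF-Ra detection, peroxidase colour) of lysates from G-292 cells given compound for 1 hr at 37 °C before a 5 min challenge with PDGF-AA at 50 ng/ml.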

In another assay the target is T2, c-kit (Homo sapiens, UniProt P10721).
T2 construct: MO7e (human megakaryocytic leukemia cell line) which had been arrested for 20 hr; endogenous in cells; host or cells: MO7e human megakaryocytic leukemia cell line
T2 sequence (P10721 26-976): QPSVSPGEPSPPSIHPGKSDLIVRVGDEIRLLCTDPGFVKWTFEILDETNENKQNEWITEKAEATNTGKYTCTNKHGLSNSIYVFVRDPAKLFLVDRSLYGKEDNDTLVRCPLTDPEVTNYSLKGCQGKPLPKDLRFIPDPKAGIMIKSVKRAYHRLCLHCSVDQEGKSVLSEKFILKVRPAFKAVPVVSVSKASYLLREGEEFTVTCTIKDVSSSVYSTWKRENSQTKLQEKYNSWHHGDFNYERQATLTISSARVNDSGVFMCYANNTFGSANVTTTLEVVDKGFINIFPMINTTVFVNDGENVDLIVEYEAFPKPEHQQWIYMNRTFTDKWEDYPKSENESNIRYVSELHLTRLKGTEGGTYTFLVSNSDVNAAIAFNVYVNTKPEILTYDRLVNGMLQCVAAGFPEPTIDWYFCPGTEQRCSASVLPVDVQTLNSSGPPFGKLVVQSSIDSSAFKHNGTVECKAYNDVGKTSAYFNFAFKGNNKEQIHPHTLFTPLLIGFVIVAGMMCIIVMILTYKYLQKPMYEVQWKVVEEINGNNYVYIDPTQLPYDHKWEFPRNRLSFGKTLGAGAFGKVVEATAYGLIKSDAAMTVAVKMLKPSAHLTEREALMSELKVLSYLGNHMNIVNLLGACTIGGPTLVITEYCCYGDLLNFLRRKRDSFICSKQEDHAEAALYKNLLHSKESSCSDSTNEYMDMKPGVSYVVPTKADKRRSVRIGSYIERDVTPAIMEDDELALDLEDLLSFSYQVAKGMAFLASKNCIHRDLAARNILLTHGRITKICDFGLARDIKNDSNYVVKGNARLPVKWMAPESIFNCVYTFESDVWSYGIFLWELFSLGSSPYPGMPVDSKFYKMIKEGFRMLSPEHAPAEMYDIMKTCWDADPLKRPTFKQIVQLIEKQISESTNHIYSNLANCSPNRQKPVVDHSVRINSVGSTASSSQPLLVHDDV
Description: Inhibitory activity against c-kit autophosphorylation (MO7e cells, h-SCF). In kind it is cell-based. To be noted: for inhibition at 1 µM: Mo7e, figure in parentheses in −( ), at 1000 nM; for IC50: MO7e cells, h-SCF 50 ng/ml, read-out: c-kit IC50. An outline of the steps: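 Ligand-induced c-kit tyrosine phosphorylation is measured in MO7e cells that were quiesced 20 hr and preincubated with compound for 1 hr prior to a 5 min pulse of 50 ng/ml human SCF. Phospho-c-kit is detected by anti-phosphotyrosine capture ELISA, A450.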

T1 sequence (P16234 24-1089): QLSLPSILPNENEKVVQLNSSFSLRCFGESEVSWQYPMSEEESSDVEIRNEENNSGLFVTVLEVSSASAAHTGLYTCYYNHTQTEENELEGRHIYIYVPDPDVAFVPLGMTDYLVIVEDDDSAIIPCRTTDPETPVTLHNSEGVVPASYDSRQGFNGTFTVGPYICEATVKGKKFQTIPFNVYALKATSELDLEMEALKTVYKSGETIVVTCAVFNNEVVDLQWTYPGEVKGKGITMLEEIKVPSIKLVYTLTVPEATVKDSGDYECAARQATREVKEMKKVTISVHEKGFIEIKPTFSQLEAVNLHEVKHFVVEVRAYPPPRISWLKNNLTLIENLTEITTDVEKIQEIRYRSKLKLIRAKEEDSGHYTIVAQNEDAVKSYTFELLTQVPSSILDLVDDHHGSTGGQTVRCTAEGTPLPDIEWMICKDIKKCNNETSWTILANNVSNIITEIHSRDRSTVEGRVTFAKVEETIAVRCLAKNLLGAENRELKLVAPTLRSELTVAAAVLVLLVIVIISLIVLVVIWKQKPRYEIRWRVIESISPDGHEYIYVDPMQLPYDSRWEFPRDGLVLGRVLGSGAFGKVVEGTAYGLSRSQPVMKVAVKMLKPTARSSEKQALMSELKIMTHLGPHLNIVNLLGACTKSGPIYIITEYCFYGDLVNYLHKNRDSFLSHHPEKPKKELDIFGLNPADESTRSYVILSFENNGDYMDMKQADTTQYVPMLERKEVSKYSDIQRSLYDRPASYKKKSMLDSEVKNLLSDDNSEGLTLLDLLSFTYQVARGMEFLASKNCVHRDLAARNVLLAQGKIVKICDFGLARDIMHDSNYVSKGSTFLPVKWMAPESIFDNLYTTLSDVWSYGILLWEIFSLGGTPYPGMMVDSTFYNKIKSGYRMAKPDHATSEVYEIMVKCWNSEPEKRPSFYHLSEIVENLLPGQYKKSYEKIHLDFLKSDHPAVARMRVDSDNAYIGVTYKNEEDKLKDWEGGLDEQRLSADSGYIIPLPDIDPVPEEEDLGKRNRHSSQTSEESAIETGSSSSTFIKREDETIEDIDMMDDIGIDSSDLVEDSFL

Turning to `CCCCCCCCCCCCCCCCCCOC(=O)Nc1cc(C)c(Oc2ccnc3cc(OC)c(OC)cc23)cc1C` [Example 327, Octadecyl N-{4-[(6,7-dimethoxy-4-quinolyl)oxy]-2,5-dimethylphenyl}carbamate], on PDGF-Ra, the inhibition at 0.1 µM worked out at 30% and the IC50 was greater than 100 nM. Also, the inhibition at 1 µM at c-kit stood at 6%.
For `CCCCCCCCCCCCCCCCCCOC(=O)Nc1ccc(Oc2ccnc3cc(OC)c(OC)cc23)c(C)c1C` [Example 328, Octadecyl N-{4-[(6,7-dimethoxy-4-quinolyl)oxy]-2,3-dimethylphenyl}carbamate] the same measures were 22%, greater than 100 nM and 10%.
Turning to `CCCCC(CC)OC(=O)Nc1ccc(Oc2ccnc3cc(OC)c(OC)cc23)cc1` (stereo not drawn) [Example 329, 1-Ethylpentyl N-{4-[(6,7-dimethoxy-4-quinolyl)oxy]phenyl}carbamate], the IC50 on PDGF-Ra was less than 10 nM; at c-kit, 253 nM.
For `CCCCC(CC)OC(=O)Nc1cc(C)c(Oc2ccnc3cc(OC)c(OC)cc23)cc1C` (stereo not drawn) [Example 330, 1-Ethylpentyl N-{4-[(6,7-dimethoxy-4-quinolyl)oxy]-2,5-dimethylphenyl}carbamate] the same measures were 12 nM and 467 nM.
As to `CCCCC(CC)OC(=O)Nc1ccc(Oc2ccnc3cc(OC)c(OC)cc23)c(C)c1C` (stereo not drawn) [Example 331, 1-Ethylpentyl N-{4-[(6,7-dimethoxy-4-quinolyl)oxy]-2,3-dimethylphenyl}carbamate], the figures for the IC50 at PDGF-Ra and on c-kit were less than 10 nM and 377 nM, respectively.
For `CCCC(CCC)OC(=O)Nc1ccc(Oc2ccnc3cc(OC)c(OC)cc23)cc1` [Example 332, 1-Propylbutyl N-{4-[(6,7-dimethoxy-4-quinolyl)oxy]phenyl}carbamate] the same measures were less than 10 nM and 259 nM.
For `CCCC(CCC)OC(=O)Nc1cc(C)c(Oc2ccnc3cc(OC)c(OC)cc23)cc1C` [Example 333, 1-Propylbutyl N-{4-[(6,7-dimethoxy-4-quinolyl)oxy]-2,5-dimethylphenyl}carbamate], the IC50 was 12 nM at PDGF-Ra and 712 nM on c-kit.
For `CCCC(CCC)OC(=O)Nc1ccc(Oc2ccnc3cc(OC)c(OC)cc23)c(C)c1C` [Example 334, 1-Propylbutyl N-{4-[(6,7-dimethoxy-4-quinolyl)oxy]-2,3-dimethylphenyl}carbamate] the same measures were less than 10 nM and 484 nM.
For `CCCCCCOC(=O)Nc1ccc(Oc2ncnc3cc(OC)c(OC)cc23)cc1` [Example 335, Hexyl N-{4-[(6,7-dimethoxy-4-quinazolinyl)oxy]phenyl}carbamate] the same measures were less than 10 nM and less than 30 nM.
For `CCCCCCOC(=O)Nc1ccc(Oc2ncnc3cc(OC)c(OC)cc23)cc1Cl` [Example 336, Hexyl N-{2-chloro-4-[(6,7-dimethoxy-4-quinazolinyl)oxy]phenyl}carbamate] the same measures were 14 nM and 109 nM.
For the molecule `CCCC(CC)OC(=O)Nc1ccc(Oc2ncnc3cc(OC)c(OC)cc23)cc1` (stereo not drawn) [Example 337, 1-Ethylbutyl N-{4-[(6,7-dimethoxy-4-quinazolinyl)oxy]phenyl}carbamate], the IC50 at PDGF-Ra is less than 10 nM; on c-kit, 198 nM.
For `CCCC(CC)OC(=O)Nc1ccc(Oc2ncnc3cc(OC)c(OC)cc23)cc1Cl` (stereo not drawn) [Example 338, 1-Ethylbutyl N-{2-chloro-4-[(6,7-dimethoxy-4-quinazolinyl)oxy]phenyl}carbamate] the same measures were 25 nM and 956 nM.
For `COc1cc2ncnc(Oc3ccc(NC(=O)OCCc4ccccc4)c(Cl)c3)c2cc1OC` [Example 339, Phenethyl N-{2-chloro-4-[(6,7-dimethoxy-4-quinazolinyl)oxy]phenyl}carbamate] the same measures were 38 nM and 197 nM.
For `COc1cc2ncnc(Oc3ccc(NC(=O)OCC4CCCCC4)cc3)c2cc1OC` [Example 340, Cyclohexylmethyl N-{4-[(6,7-dimethoxy-4-quinazolinyl)oxy]phenyl}carbamate] the same measures were less than 10 nM and 107 nM.
On to `COc1cc2ncnc(Oc3ccc(NC(=O)OCC4CCCCC4)c(Cl)c3)c2cc1OC` [Example 341, Cyclohexylmethyl N-{2-chloro-4-[(6,7-dimethoxy-4-quinazolinyl)oxy]phenyl}carbamate], for which the IC50 at PDGF-Ra was found to be 32 nM; at c-kit it was 519 nM.
For `COc1cc2ncnc(Oc3ccc(NC(=O)OC4CCCCCC4)cc3)c2cc1OC` [Example 342, Cycloheptyl N-{4-[(6,7-dimethoxy-4-quinazolinyl)oxy]phenyl}carbamate] the same measures were less than 10 nM and less than 30 nM.
For `COc1cc2ncnc(Oc3ccc(NC(=O)OC4CCCCCC4)c(Cl)c3)c2cc1OC` [Example 343, Cycloheptyl N-{2-chloro-4-[(6,7-dimethoxy-4-quinazolinyl)oxy]phenyl}carbamate] the same measures were less than 10 nM and 232 nM.
For `CCCCOC(=O)Nc1ccc(Oc2ncnc3cc(OC)c(OC)cc23)cc1` [Example 344, Butyl N-{4-[(6,7-dimethoxy-4-quinazolinyl)oxy]phenyl}carbamate] the same measures were less than 10 nM and less than 30 nM.
Take `CCC(OC(=O)Nc1ccc(Oc2ncnc3cc(OC)c(OC)cc23)cc1Cl)c1ccccc1` (stereo not drawn) [Example 346, 1-Phenylpropyl N-{2-chloro-4-[(6,7-dimethoxy-4-quinazolinyl)oxy]phenyl}carbamate]: on PDGF-Ra, the IC50 was determined as 41 nM. Also, the inhibition at 1 µM on c-kit turned out to be 37%.
As to `COc1cc2nccc(Oc3cc(C)c(NC(=O)OC(C)C)cc3C)c2cc1OC` [Example 347, Isopropyl N-{4-[(6,7-dimethoxy-4-quinolyl)oxy]-2,5-dimethylphenyl}carbamate], the IC50 is 77 nM at PDGF-Ra and 228 nM at c-kit.
For `COc1cc2nccc(Oc3ccc(NC(=O)OCC4CCCCCC4)cc3)c2cc1OC` [Example 348, Cycloheptylmethyl N-{4-[(6,7-dimethoxy-4-quinolyl)oxy]phenyl}carbamate] the same measures were less than 10 nM and 90 nM.
For `COc1cc2nccc(Oc3cc(C)c(NC(=O)OCC4CCCCCC4)cc3C)c2cc1OC` [Example 349, Cycloheptylmethyl N-{4-[(6,7-dimethoxy-4-quinolyl)oxy]-2,5-dimethylphenyl}carbamate] the same measures were 12 nM and 309 nM.
As for `COc1cc2nccc(Oc3ccc(NC(=O)OCC4CCCCCC4)c(C)c3C)c2cc1OC` [Example 350, Cycloheptylmethyl N-{4-[(6,7-dimethoxy-4-quinolyl)oxy]-2,3-dimethylphenyl}carbamate], the results for the IC50 on PDGF-Ra and on c-kit were less than 10 nM and 238 nM, respectively.
`COc1cc2ncnc(Oc3ccc(NC(=O)OCC4CCCCCC4)cc3)c2cc1OC` [Example 351, Cycloheptylmethyl N-{4-[(6,7-dimethoxy-4-quinazolinyl)oxy]phenyl}carbamate]: the IC50 at PDGF-Ra is less than 10 nM; on c-kit, 64 nM.
For `COc1cc2ncnc(Oc3ccc(NC(=O)OCC4CCCCCC4)c(Cl)c3)c2cc1OC` [Example 352, Cycloheptylmethyl N-{2-chloro-4-[(6,7-dimethoxy-4-quinazolinyl)oxy]phenyl}carbamate] the same measures were less than 10 nM and 195 nM.
In the case of `COc1cc2nccc(Oc3cc(C)c(NC(=O)OCCC4CCCCC4)cc3C)c2cc1OC` [Example 354, 2-Cyclohexylethyl N-{4-[(6,7-dimethoxy-4-quinolyl)oxy]-2,5-dimethylphenyl}carbamate], the IC50 on PDGF-Ra is 15 nM; at c-kit, 384 nM.
For `COc1cc2nccc(Oc3ccc(NC(=O)OCCC4CCCCC4)c(C)c3C)c2cc1OC` [Example 355, 2-Cyclohexylethyl N-{4-[(6,7-dimethoxy-4-quinolyl)oxy]-2,3-dimethylphenyl}carbamate] the same measures were 24 nM and 252 nM.
For `COc1cc2ncnc(Oc3ccc(NC(=O)OCCC4CCCCC4)cc3)c2cc1OC` [Example 356, 2-Cyclohexylethyl N-{4-[(6,7-dimethoxy-4-quinazolinyl)oxy]phenyl}carbamate] the same measures were less than 10 nM and 66 nM.
`COc1cc2ncnc(Oc3ccc(NC(=O)OCCC4CCCCC4)c(Cl)c3)c2cc1OC` [Example 357, 2-Cyclohexylethyl N-{2-chloro-4-[(6,7-dimethoxy-4-quinazolinyl)oxy]phenyl}carbamate]: the results for the IC50 on PDGF-Ra and at c-kit were less than 10 nM and 116 nM, respectively.
For `CCC(CC)OC(=O)Nc1ccc(Oc2ccnc3cc(OC)c(OC)cc23)cc1` [Example 358, 1-Ethylpropyl N-{4-[(6,7-dimethoxy-4-quinolyl)oxy]phenyl}carbamate] the same measures were less than 10 nM and 366 nM.
For `CCC(CC)OC(=O)Nc1cc(C)c(Oc2ccnc3cc(OC)c(OC)cc23)cc1C` [Example 359, 1-Ethylpropyl N-{4-[(6,7-dimethoxy-4-quinolyl)oxy]-2,5-dimethylphenyl}carbamate] the same measures were 28 nM and 274 nM.
For `CCC(CC)OC(=O)Nc1ccc(Oc2ccnc3cc(OC)c(OC)cc23)c(C)c1C` [Example 360, 1-Ethylpropyl N-{4-[(6,7-dimethoxy-4-quinolyl)oxy]-2,3-dimethylphenyl}carbamate] the same measures were 16 nM and 189 nM.
